Data set [1] in a line: Solubility of L-cystine neutralized with fatty acids, HPLC (Example 5). Particulars: for Solubility ppm cystine: excess L-cystine in NaOH neutralized with the named acid, equilibrated at least 72 hours, filtered, HPLC, 3 replicas; for pH: pH of the cystine solution neutralized with the named acid. The method, then:
Solubility of cystine was determined in the presence of alternative fatty acids. […] The precipitate upon neutralization was equilibrated with saturated solution for at least 72 hours. The solutions were then filtered through 0.45 micrometer PTFE or nylon (for C12) syringe filter and analysed on HPLC for cystine concentration.

A short description of data set [2]: Microscopy of cystine crystals recrystallized from high pH solution in hystric acid/KOH acid soap mixtures (Example 1). The class given is physicochemical. Here is the method:
The size of crystals can be estimated by microscopy.
The soap/acid emulsions were prepared using hystric acid (55% palmitic acid/45% stearic acid) by melting the hystric acid at 75° C. and adding this melted acid to aqueous phase consisting of KOH. […] Solubilized cystine in high pH solution was then added to the acid/soap mixture as high pH solution. Depending on the procedure of addition, differences in final formulations have been achieved.
Formula A was prepared by dissolving the cystine in hot KOH solution. Melted hystric acid was then added to this hot (75° C.) aqueous solution of cystine, mixed and let cool down to room temperature while mixing. Formula B was prepared by adding the melted hystric acid to hot KOH solution, and adding the high pH solution of cystine while mixing all ingredients at 75° C. Formula C was prepared by adding the melted hystric acid to hot KOH solution, creating thus soap, cooling the soap to 50° C. and then adding the high pH solution of cystine The resulting acid soap mixtures were observed under microscope for the formation of cystine crystals. […] Addition of cystine solution to acid soap mixture at 50-60° C. is preferred as only small particles are formed. At this temperature the majority of acid soap exists in lamellar liquid crystal or lamellar gel with vary narrow aqueous layer creating a restrictive environment for cystine crystal growth. […]

The procedure of data set [3]: The compositional examples are in the table 3 below. The samples in table 3 were prepared by process C in table 1.
The results in Table 3 illustrate that other ingredients can be added to the inventive compositions, as long as lamellar bilayer liquid crystal or liquid gel structure remains intact.

For data set [4] the following is noted: cited from earlier work.
The procedure of data set [5]: Additional samples with decreasing concentration of cystine were prepared to find the solubility limit for cystine in acid soap mixture. Samples in table 2 were prepared by Process A in table 1.
The samples were evaluated under microscope on the hot plate at 80° C.
The source holds these as a separate data set.

In data set [1], `CCCCCCCCCCCC(=O)O` [Dodecanoic (C12) with KOH, Dodecanoic] displayed a Solubility ppm cystine of 490.6 ppm and a pH of 7.6.
With `CCCCCCCCCCCC(=O)O` [Dodecanoic (C12) with NaOH, Dodecanoic], in data set [1], the Solubility ppm cystine is 575 ppm and the pH worked out at 7.6.
In the same order, the values of `O=C(O)/C=C\C(=O)O` [Maleic] are 181.6 ppm and 6.6.
Taken in the same sequence, the figures for `CCCCCCCC/C=C\CCCCCCCC(=O)O` [Oleic acid (C18:1), Oleic acid] were 246.8 ppm and 7.3.
Consider `N[C@@H](CSSC[C@H](N)C(=O)O)C(=O)O` [cystine], for which, in data set [2] (added from high pH solution to fatty acid-soap lamellar liquid crystal or lamellar gel), the “average particle size of cystine” value is listed as “less than 20 micrometers”. The cystine crystal size result in data set [2] (cystine added at 75 C-80° C. when in the form of oil-in-water emulsion) is on record as “greater than 20 micrometers”. Besides, the “solubility of cystine, minimal concentration” value in data set [3] is listed as “greater than 600 ppm”. In addition, in data set [4], the “natural solubility of cystine” value is recorded as 100 ppm. Moreover, the “solubility of cystine in the hystric acid acid/soap media” value in data set [5] is “greater than 700 ppm”.

Source of the values: patent US11666519B2, “Personal care compositions with cystine” (Conopco, Inc., priority 2016, dated 2023).
